Measured values reported in patent publication US12460003B2, “Methods of assessing and treating cancer in subjects having dysregulated lymphatic systems” (Ensemble Group Holdings, priority 2016, dated 2025).

Key:
[1] = system: 4T1 and LLC tumor cells, also transfected to overexpress VEGF-C; test: Example 3: syngeneic 4T1 and LLC models incl. VEGF-C overexpressing tumor cells, lymphangitic carcinomatosis; format: in vivo, syngeneic mice; conditions: preventative treatment, alone or with an immune modulator or chemotherapy
Description: The experiments from Example 2 are performed using the same animal models (4T1 and LLC) in syngeneic mice. Another group of tumor cells is transfected to overexpress VEGF-C to stimulate severe lymphatic dysregulation. Overexpression of VEGF C by tumor cells can result in a severe lymphatic dysregulation and an extremely aggressive lymphangitic carcinomatosis, which is a subset of the groups of dysregulated lymphatic disorders resistant to immunotherapy (Example 1). […] In this experiment, it is evaluated whether advanced tumors with inherent lymphatic dysregulation or with exaggerated lymphatic dysregulation driven by VEGF C hyperexpression can be treated and whether treatment can prevent mice with cancers from progressing to severe lymphangitic carcinomatosis.
Treatment groups include (1) anti-PD-1 mAb alone; (2) anti-PD-1-mAb plus lymphatic system modulator (anti-VEGF C or anti-VEGF R3 mAb, or SAR131675); (3) cisplatin alone; (4) lymphatic system modulator (anti-VEGF C or anti-VEGF R3 mAb, or SAR131675) plus cisplatin; and (5) negative control (no treatment).

[2] = system: LLC lung cancer or 4T1 breast cancer cells; test: Example 2: syngeneic tumor models treated with lymphatic system modulator plus immunotherapy or chemotherapy; format: in vivo, syngeneic mice (C57 Black 6 and BALB/c)
Description: One to two million cells of either LLC lung cancer or 4T1 breast cancer cells are subcutaneously implanted into syngeneic mice (C57 Black 6 and BALB/c). Animals are treated with vehicle alone as a control, with chemotherapy (cisplatin), or with immunotherapy alone (anti-PD-1 mAb). Animals are imaged by intravascular ultrasound (IVUS), CT/PET, or MRI, for growth of the primary tumor and for metastatic spread of the tumor. Blood samples are obtained for a multiplexed measure of serum biomarkers of lymphatic biology function (Millipore mouse 24 plex; MAGPMAG-24K). Around Study Day 10, animals are injected with 1-1.5 million more tumor cells into the tail vein. Between Study Days 13 and 16, the primary tumor is surgically resected, and animals resume treatment. […]
Animals are imaged weekly, and blood for serum multiplex measurements is continued and evaluated. Survival studies and analyses are performed, and animals are evaluated based on overall survival, progression-free survival, objective and durable response, and serum biomarker measurements. Lung tissue, lymphatics, and regional lymph nodes and tumor tissue are concurrently evaluated upon animal sacrifice for functional immune evaluation and analysis of the tumor and disease analysis.

Row | SMILES | objective and functional outcomes [1] | progression to lymphangitic carcinomatosis [1] | immunological function ([2]; concurrent with immune modulator (checkpoint inhibitor) or chemotherapy (cisplatin)) | response of animals to single agent ([2]; agent alone)
1 | CCn1c(N)c(C(=O)NC)c(=O)c2ccc(C#C[C@@](C)(O)COC)nc21 [SAR131675] | significantly improves | no mouse progresses | functional immunological improvements | –
2 | N.N.[Cl][Pt][Cl] [cisplatin] | – | – | – | no to marginal response
